Measured values as given in ChEMBL document CHEMBL1153508, “Evaluation of hydrogen bonds of ecdysteroids in the ligand-receptor interactions using a protein modeling system” (Bioorg Med Chem, 2009).

Target: T1, Ecdysone receptor (Drosophila melanogaster, UniProt P34021)
T1 sequence (P34021 whole entry): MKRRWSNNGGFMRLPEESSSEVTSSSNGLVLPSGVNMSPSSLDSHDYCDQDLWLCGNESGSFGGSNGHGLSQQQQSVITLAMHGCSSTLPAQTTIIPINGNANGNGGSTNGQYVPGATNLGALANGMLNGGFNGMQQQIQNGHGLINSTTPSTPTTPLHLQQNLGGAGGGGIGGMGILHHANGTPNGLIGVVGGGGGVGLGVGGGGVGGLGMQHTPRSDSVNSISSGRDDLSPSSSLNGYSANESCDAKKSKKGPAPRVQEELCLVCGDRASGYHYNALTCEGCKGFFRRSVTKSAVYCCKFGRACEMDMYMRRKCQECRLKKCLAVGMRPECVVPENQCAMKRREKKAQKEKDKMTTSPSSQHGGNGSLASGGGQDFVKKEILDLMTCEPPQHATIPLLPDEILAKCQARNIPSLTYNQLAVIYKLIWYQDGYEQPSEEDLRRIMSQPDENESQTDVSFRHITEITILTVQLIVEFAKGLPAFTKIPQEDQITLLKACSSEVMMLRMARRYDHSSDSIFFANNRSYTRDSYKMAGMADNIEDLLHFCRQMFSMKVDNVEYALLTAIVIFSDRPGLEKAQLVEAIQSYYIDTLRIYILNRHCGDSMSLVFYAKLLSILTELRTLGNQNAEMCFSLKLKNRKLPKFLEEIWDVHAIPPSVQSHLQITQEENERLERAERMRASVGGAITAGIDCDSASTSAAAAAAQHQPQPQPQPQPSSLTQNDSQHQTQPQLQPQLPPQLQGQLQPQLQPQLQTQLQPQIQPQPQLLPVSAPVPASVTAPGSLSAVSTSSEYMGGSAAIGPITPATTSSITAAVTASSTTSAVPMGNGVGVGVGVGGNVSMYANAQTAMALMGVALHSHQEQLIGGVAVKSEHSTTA
Assay: Binding affinity to ecdysone receptor ligand binding domain in Drosophila melanogaster assessed as number of hydrogen bonds formed

SMILES	IC50
CC(C)CC[C@@H](O)[C@](C)(O)[C@H]1CC[C@H]2[C@@H]3CC[C@H]4C[C@@H](O)CC[C@]4(C)[C@H]3CC[C@]12C	41.7 µM
CC(C)CC[C@@H](O)[C@](C)(O)[C@H]1CC[C@H]2[C@@H]3CC(=O)[C@H]4C[C@H](O)CC[C@]4(C)[C@H]3CC[C@]12C	0.794 µM
C[C@H](C[C@@H](O)[C@](C)(O)[C@H]1CC[C@@]2(O)C3=CC(=O)[C@@H]4C[C@@H](O)[C@@H](O)C[C@]4(C)[C@H]3CC[C@]12C)C(C)(C)O [MAKISTERONE A]	0.112 µM
CC(C)CC[C@@H](O)[C@](C)(O)[C@H]1CC[C@H]2[C@@H]3CC(=O)[C@@H]4C[C@@H](O)[C@@H](O)C[C@]4(C)[C@H]3CC[C@]12C	0.0589 µM
CC(C)CC[C@@H](O)[C@](C)(O)[C@H]1CC[C@H]2[C@@H]3C[C@H](O)[C@H]4C[C@@H](O)CC[C@]4(C)[C@H]3CC[C@]12C	> 245 µM
CC(C)CC[C@@H](O)[C@](C)(O)[C@H]1CC[C@H]2[C@@H]3CC(=O)[C@@H]4C[C@H](O)CC[C@]4(C)[C@H]3CC[C@]12C	89.1 µM
CC(C)CC[C@@H](O)[C@](C)(O)[C@H]1CC[C@H]2[C@@H]3CC=C4CCCC[C@]4(C)[C@H]3CC[C@]12C	> 245 µM
CC(C)CC[C@@H](O)[C@](C)(O)[C@H]1CC[C@H]2[C@@H]3CC(=O)[C@H]4C[C@@H](O)CC[C@]4(C)[C@H]3CC[C@]12C	9.55 µM
CC(C)CC[C@@H](O)[C@](C)(O)[C@H]1CC[C@H]2[C@@H]3CC=C4C[C@@H](O)CC[C@]4(C)[C@H]3CC[C@]12C	41.7 µM
CC(C)CC[C@@H](O)[C@](C)(O)[C@H]1CC[C@@]2(O)C3=CC(=O)[C@@H]4C[C@@H](O)[C@@H](O)C[C@]4(C)[C@H]3CC[C@]12C [PONASTERONE A]	0.00129 µM
CC(C)CC[C@H](O)[C@](C)(O)[C@H]1CC[C@H]2[C@@H]3CC(=O)[C@H]4C[C@H](O)[C@H](O)C[C@]4(C)[C@H]3CC[C@]12C	38.9 µM
CC(CO)CC[C@@H](O)[C@](C)(O)[C@H]1CC[C@@]2(O)C3=CC(=O)[C@@H]4C[C@@H](O)[C@@H](O)C[C@]4(C)[C@H]3CC[C@]12C (some centres undefined) [INOKOSTERONE]	0.0912 µM
CC(C)CC[C@@H](O)[C@](C)(O)[C@H]1CC[C@H]2[C@@H]3CC[C@H]4CCCC[C@]4(C)[C@H]3CC[C@]12C	> 245 µM
CC(C)CC[C@@H](O)[C@](C)(O)[C@H]1CC[C@H]2[C@@H]3CC(=O)[C@H]4C[C@@H](O)[C@@H](O)C[C@]4(C)[C@H]3CC[C@]12C	14.5 µM
CC(C)(O)CC[C@@H](O)[C@](C)(O)[C@H]1CC[C@@]2(O)C3=CC(=O)[C@@H]4C[C@@H](O)[C@@H](O)C[C@]4(C)[C@H]3CC[C@]12C [20-HYDROXYECDYSONE]	0.0457 µM
C[C@@H]1C(=O)O[C@H](C)[C@H]1C[C@@H](O)[C@](C)(O)[C@H]1CC[C@@]2(O)C3=CC(=O)[C@@H]4C[C@@H](O)[C@@H](O)C[C@]4(C)[C@H]3CC[C@]12C [CYASTERONE]	0.0617 µM
CC(C)CC[C@@H](O)[C@](C)(O)[C@H]1CC[C@H]2[C@@H]3CC(=O)[C@H]4C[C@H](O)[C@H](O)C[C@]4(C)[C@H]3CC[C@]12C	0.324 µM
CC(C)CC[C@@H](O)[C@](C)(O)[C@H]1CC[C@H]2[C@@H]3C[C@@H](O)[C@H]4C[C@@H](O)CC[C@]4(C)[C@H]3CC[C@]12C	> 245 µM
C[C@H]([C@H](O)CCC(C)(C)O)[C@H]1CC[C@@]2(O)C3=CC(=O)[C@@H]4C[C@@H](O)[C@@H](O)C[C@]4(C)[C@H]3CC[C@]12C [ECDYSONE]	2.57 µM
